Assay [1] has as its system Scopolamine-induced memory impairment in mice. The experiment in a line: Scopolamine-induced memory impairment in mice, water maze test. Type of assay: in vivo, Kunming mice. As to conditions: for Improvement of scopolamine-induced memory impairment: water maze, **p<0.01 vs scopolamine model group, FIG. 10A, 10B. The method, then: In this example, Kunming mice were selected and divided into normal control group (Ctrl), Scopolamine group (Sco), Donepezil treatment group (Sco+3 mg/kg donepezil), 1 and 10 mg T-006 treatment group (Sco+1 mg/kg T-006 and Sco+10 mg/kg T-006). Intragastric administration was performed for two weeks, and after the final administration water maze test was conducted for 4 days. Thirty minutes before the test, abdominal injection of scopolamine (1 mg/kg) and model were performed. On day 5, space search test was conducted, and data were expressed as Mean±SD (n=9 per group).

In assay [2] the test system is PC12 cells. The experiment in a line: Differentiation of PC12 cells into neurons with synapse growth. Type of assay: cell-based. As to conditions: 72 h, **P<0.01 vs control group, FIG. 11. The procedure:
PC12 cells were seeded on 6-well plate and inoculated in a 5% CO2 incubator at 37° C. for 24 hours. Control group was unchanged; NGF control group: serum-free F-12K+50 ng/mL NGF; drug treatment group: serum-free F-12K with different concentrations of T-006. After 72 hours of incubation, picture was taken under an inverted microscope with 5 shoots at random for each hole. If the cell synapse length is more than 2 times the cell, it can be regarded as cell differentiation and synapse formation. […] Compared with the control group, **P<0.01.

Assay [3] has as its system PC12 cells. The experiment in a line: Protective effect on IAA-induced PC12 cell injury (MTT). The assay is classed as cell-based. The settings on record: FIG. 3. The procedure: PC12 cells were seeded on a 96-well plate and inoculated in a 5% CO2 incubator at 37° C. for 24 hours. Then 100 μl of IAA (50 μM) was added for induction for 2 hours. Two hours later, the medium was aspirated, and each of the compounds (T-006, TMP, Edaravone) was added and the cells were cultured for 24 hours. After 24 hours of incubation, MTT was added to each well. Four hours later, the absorbance was measured at 570 nm using a microplate reader. […] Compared with the IAA group, ****P<0.0001.

For assay [4], the system named is PC12 cells. The experiment in a line: Protective effect on t-BHP-induced PC12 cell injury (MTT). The assay is classed as cell-based. The settings on record: FIG. 4. The procedure: PC12 cells were seeded on a 96-well plate and inoculated in a 5% CO2 incubator at 37° C., for 24 hours. Then each compound (T-006, TMP, Edaravone) was added in different concentration gradients to pre-incubated for 2 hours. Two hours later, the medium was aspirated, and 100 μl t-BHP (100 μM) was added to each well except those of the control group, then the cells were cultured in an incubator for 24 hours. Four hours later, MTT was added into each of the wells, and the absorbance was measured at 570 nm using a microplate reader. […] Compared with t-BHP group, ****P<0.0001.

The test system of assay [5] is Cortical neurons. The experiment in a line: Protective effect on IAA-induced cortical neuronal injury (MTT). As to conditions: FIG. 5. The assay is classed as cell-based, SD fetal rat. The procedure: Cortical neurons of E16-18 day SD fetal rat were seeded on a 96-well plate and inoculated in a 5% CO2 incubator at 37° C. for 8 days. On day 8, each of the compounds (T-006, TMP, Edaravone) was added with different concentration gradients, and 50 μl IAA (40 μM) was added to each well except those of the control group. Then the neurons were set to incubator to cultivate for 24 hours, and then MTT was added to each well. Four hours later, the absorbance was measured at 570 nm using a microplate reader. […] Compared with the IAA group, ****P<0.0001.

Assay [6] deals with Cortical neurons. The experiment in a line: Protective effect on t-BHP-induced cortical neuronal injury (MTT). Type of assay: cell-based, SD fetal rat. The settings on record: FIG. 6. The procedure:
Cortical neurons of E16-18 days SD fetal rat were seeded on a 96-well plate and inoculated in a 5% CO2 incubator at 37° C. for 8 days. […] The neurons were set to incubator to cultivate for 24 hours, and then MTT was added to each well. Four hours later, the absorbance value was measured at 570 nm using a microplate reader. […] Compared with the t-BHP group, ****P<0.0001.

Assay [7] relates to Primary cerebellar granule cells. The experiment in a line: Protective effect on glutamate-induced cerebellar granule injury (MTT). Type of assay: cell-based, SD fetal rat. The settings on record: pre-incubated 2 h, glutamate 75 μM 24 h, concentration-dependent, **P<0.01 vs glutamate group, FIG. 7. The method, then:
(§1) Primary cerebellar granule cells, extracted from 7-8 day, 15-20 g SD fetal rat, were seeded on a 96-well plate and inoculated in a 5% CO2 incubator at 37° C. for 8 days. On day 8, 90 μL of the compound (T-006) was added with different concentration gradients, then the cells were set to an incubator to cultivate for 2 hours. Then 10 μL of glutamate (final concentration of 75 μM) was added to each well except those of the control group. The cells were set to incubator to cultivate for 24 hours, and then MTT was added to each well. Four hours later, the absorbance value was measured at 570 nm using a microplate reader. […] Compared with the glutamate group, **P<0.01.

For assay [8] the test system is unchanged. The experiment in a line: Protective effect on MPP+-induced cerebellar granule injury (MTT). The assay is classed as cell-based, SD fetal rat. The settings on record: pre-incubated 2 h, MPP+ 35 μM 24 h, concentration-dependent, **P<0.01 vs MPP+ group, FIG. 8. The method, then: as §1, with “days,” for “day,”, “MPP^+” for “glutamate”, “35” for “75”
In assay [9] the test system is MEF2 transcription activity in PC12 cells. The experiment in a line: MEF2 luciferase reporter assay in stably transfected PC12 cells. Type of assay: cell-based. The settings on record: 24 h incubation, **P<0.01, FIG. 9. The method, then: The PC12 was transfected by cloning the MEF2 reporter gene pGreenFire1TM-MEF2-EF1 lentivector. Stable transfected PC12 cells, as cultured in a conventional manner, were seeded on a 96-well plate with T-006 added in different concentrations, were incubated for 24 h. The activity was measured by the Luciferase reporter assay kit (Promega, USA). […] Compared with the IAA group, **P<0.01.

The subject of assay [10] is PC12 cells. The experiment in a line: t-BHP-induced apoptosis in PC12 cells (Hoechst staining). The assay is classed as cell-based. As to conditions: pre-incubated 2 h, t-BHP 100 μM 24 h, FIG. 13A, 13B. The method, then: (§2) PC12 cells were seeded on a 96-well plate and inoculated in a 5% CO2 incubator at 37° C. for 24 hours, and then T-006 and TMP (100 M) in different concentration gradients were added to be pre-incubated for 2 hours. Then the medium was aspirated, and 100 μl t-BHP (100 μM) was added to each well except the wells of the control group, and the cells were cultured in an incubator for 24 hours. Hoechst working fluid was added and the number of PC12 cells was observed and counted under fluorescence microscope. […] (B) PC12 cell apoptosis statistics. […] PC12 cells were seeded on a 96-well plate and inoculated in a 5% CO2 incubator at 37° C. for 24 hours, and then T-006 and TMP (100 M) in different concentration gradients were added to be pre-incubated for 2 hours. 2 hours later, 100 μl t-BHP (100 μM) was added to each well except the control group for induction. After completion of the induction, JC-1 working solution was added to each well and mitochondrial membrane potential was monitored and analyzed using flow cytometry. Compared with the control group, ### p<0.001; compared with t-BHP, *p<0.05, **p<0.01 and ***p<0.001.

Assay [11] relates to PC12 cells. The experiment in a line: t-BHP-induced mitochondrial membrane potential disorder in PC12 cells (JC-1, flow cytometry). As to conditions: pre-incubated 2 h, t-BHP 100 μM, FIG. 13C. The assay is classed as cell-based. The method, then:
as §2

Assay [12] relates to PC12 cells. The experiment in a line: t-BHP-induced ROS and RNS in PC12 cells (DCF-DA, HFP, DAF-FM, DHR123 probes). Type of assay: cell-based. The settings on record: pre-incubated 2 h, t-BHP 100 μM 6 h; total ROS, hydroxyl radicals, nitric oxide radicals, peroxynitrite; FIG. 14A-14D. The method, then:
PC12 cells were seeded on 6-well plate and inoculated in a 5% CO2 incubator at 37° C. for 24 hours, and then T-006 and TMP (100 M) in different concentration gradients were added to be pre-incubated for 2 hours. Then the medium was aspirated, and 100 μl t-BHP (100 μM) was added to each well except the wells of the control group, and the cells were cultured in an incubator for 6 hours. Consequently, DCF-DA probes, HFP probes, DAF-FM probes and DHR123 probes were added respectively to determine the total ROS, hydroxyl radicals, nitric oxide radicals and peroxynitrite. (A) DCF-DA probe for determining intracellular total ROS. (B) HFP probe for determining intracellular hydroxyl radicals. (C) DAF-FM probe for determining nitric oxide free radicals. (D) DHR123 probe for determining intracellular peroxynitrite. Compared with the control group, ### p<0.001; compared with t-BHP, *p<0.05, **p<0.01 and ***p<0.001.

[13] abbreviates: comparison with TMP and Edaravone.

As to `COc1cc2c(cc1OC)C(=O)C(CC1CCN(Cc3ccccc3)CC1)C2` (centres unmarked) [donepezil, reference compound], the “Improvement of scopolamine-induced memory impairment” value in assay [1] (3 mg/kg intragastric for two weeks) is given as “significantly improved the memory impairment induced by scopolamine”.

As for “NGF: positive control NGF, 50 ng/mL, in the PC12 differentiation test”, the “Differentiation of PC12 cells into neurons, synapse formation and growth” value in assay [2] (serum-free F-12K + 50 ng/mL NGF, positive control) is “significantly promote differentiation of PC12 cells into neurons, synapse formation and growth”.

For the compound `Cc1ccc(N(/N=C/c2nc(C)c(C)nc2C)C(=O)C(F)(F)F)c(C)c1` [T-006], the “Protective effect on IAA-induced PC12 cell injury” value in assay [3] (IAA 50 μM 2 h, then compound 24 h, MTT, ****P<0.0001 vs IAA group) is “significant protective effect”. Besides, the “Protective effect on IAA-induced PC12 cell injury compared with TMP and Edaravone” value in assay [3] (setting [13]) is “much stronger than that of the parent compound TMP and Edaravone”. In addition, the “Protective effect on t-BHP-induced PC12 cell injury compared with TMP or Edaravone” value in [4] (comparison with TMP or Edaravone) is given as “much stronger than that of the parent compound TMP or Edaravone”. Besides, the “Protective effect on t-BHP-induced PC12 cell injury” value in [4] (pre-incubated 2 h, t-BHP 100 μM 24 h, MTT, ****P<0.0001 vs t-BHP group) is “significant protective effect”. The “Protective effect on IAA-induced cortical neuronal injury” value in assay [5] (IAA 40 μM, 24 h, MTT, ****P<0.0001 vs IAA group) is given as “significant protective effect”. Moreover, the “Protective effect on IAA-induced cortical neuronal injury compared with TMP and Edaravone” value in assay [5] (setting [13]) was “much stronger than that of the parent compound TMP and Edaravone”. For the same compound, the “Protective effect on t-BHP-induced cortical neuronal injury” value in assay [6] (24 h, MTT, ****P<0.0001 vs t-BHP group) is reported as “significant protective effect”. The “Protective effect on t-BHP-induced cortical neuronal injury compared with TMP and Edaravone” value in assay [6] (setting [13]) is “much stronger than that of the parent compound TMP and Edaravone”. Besides, the “Protective effect on glutamate-induced primary cerebellar granule injury” value in assay [7] is on record as “significant protective effect”. Further, in [8], the “Protective effect on MPP+-induced primary cerebellar granule injury” value is reported as “significant protective effect”. Further, the “MEF2 transcriptional activity in PC12 cells” value in assay [9] is on record as “significantly activates ME12 transcriptional activity”. The “Improvement of scopolamine-induced memory impairment” value in [1] (1 mg/kg intragastric for two weeks) and in assay [1] (10 mg/kg intragastric for two weeks) was “significantly improved the memory impairment induced by scopolamine” throughout. In addition, the “Improvement of scopolamine-induced memory impairment compared with 3 mg/kg donepezil group” value in assay [1] (10 mg/kg T-006 vs 3 mg/kg donepezil, $p<0.05) is “significantly better than 3 mg/kg donepezil group”. Besides, in assay [2] (serum-free F-12K, different concentrations, concentration-dependent), the “Differentiation of PC12 cells into neurons, synapse formation and growth” value is “significantly promote differentiation of PC12 cells into neurons, synapse formation and growth”. In addition, the “t-BHP-induced PC12 cell apoptosis” value in [10] was “reduced t-BHP-induced PC12 cell apoptosis”. Also, the “t-BHP-induced mitochondrial membrane potential disorder in PC12 cells” value in assay [11] was “improved t-BHP-induced mitochondrial membrane potential disorder”. Further, in [12], the “Elevation of ROS and RNS in t-BHP-induced PC12 cells” value is “Reduced the Elevation of ROS and RNS”.

The record behind these values is patent publication US20180346430A1, “TRIFLUOROACETYL HYDRAZIDE COMPOUNDS AND METHODS OF PREPARATION AND USES THEREOF” (GUANGHOU MAGPIE PHARMACEUTICALS CO., LTD., priority 2014, published 2018).
